Patent publication US8293786B2 (Alltranz Inc., priority 2007, dated 2012)

System: human abdominal skin
Test: In vitro human skin permeation and skin disposition, flow-through diffusion cells (Example 1)
Type: in vitro ADME
Description: Flow through diffusion cells were used for the permeation studies. HEPES-buffered Hanks' balanced salts containing 40% (polyethylene glycol) PEG 400 with gentamicin was used for the receiver compartment. Donor solution was comprised of either 100% propylene glycol (PG) solution or a rubbed in gel formulation. […] Drug accumulation in the skin after a 24 or 36 h diffusion experiment was determined as μmol/g wet tissue weight.
The skin samples used in the following experiments were obtained from abdominal reduction surgery and dermatomed to a thickness of approximately 200 μm. The skin samples used herein were frozen at −20° C. for less than six months.
1 L of receiver fluid was prepared by measuring 1 L of nanopure water into a graduated cylinder. 90% of the water was added to an Erlenmeyer flask. Hanks' salts (1 bottle) were added to the water along with 5.96 g of HEPES and 0.35 g of sodium bicarbonate. The pH of the solution was adjusted with 1 N sodium hydroxide solution to pH 7.4. The remaining water was added and the receiver fluid was filtered through a 0.2μ filter (Millipore, Billerica, Mass.). 50 mg of gentamicin was added to the filtered receiver fluid and 400 mL of the receiver fluid was removed and replaced with 400 mL of PEG 400.
Two different formulations were used for charging the donor compartment. Drugs were made up in either 100% PG or a gel formulation. For the PG solution, approximately 50-120 mg of the appropriate drug was weighed into a glass silanized culture tube. The gel formulation resulted from the mixing of absolute ethanol, nanopure water, IPM, Carbopol® 980, 0.1 N aqueous sodium hydroxide solution and the respective drug.
Dermatomed skin harvested from abdominoplasty, stored at −20° C., was used for the experiments. A PermeGear flow-through (In-Line, Riegelsville, Pa.) diffusion cell system was used for the skin permeation studies.
Diffusion cells were kept at 32° C. with a circulating water bath. Human epidermal skin was arranged in the diffusion cell with stratum corneum (upper layer of skin) facing the donor compartment. Permeation area of the skin was 0.95 cm^2. Data was collected from a human skin donor with three to four diffusion cells per treatment.
Receiver solution was HEPES-buffered Hanks' balanced salts with gentamicin containing 40% PEG 400 at a pH of 7.4 and flow rate was adjusted to 0.8 mL/h. Each cell was charged with 0.050 mL of the respective drug formulation (donor solution) or with 0.035 mL of gel formulation which was rubbed into the skin for 15 sec with a Teflon coated rod. The formulation was applied to ensure complete coverage. Diffusion cells were covered with a cap for the duration of the study.
Samples were collected into scintillation vials in 3 h increments for either 24 h or 36 h. All the samples were stored at 4° C. until extracted. An aliquot (0.5 mL) of the diffusion sample was placed into a silanized HPLC vial and 0.5 mL of acetonitrile was added to the sample, capped and vortexed.
At the end of the experiment, the skin tissue was removed from the diffusion cell, rinsed with nanopure water, and blotted dry with a paper towel. The skin was tape stripped twice using book tape (Scotch™, 3M, St. Paul, Minn.) to remove drug formulation adhering to the tissue surface. The area of skin in contact with the drug was cut out, chopped up and placed in a pre-weighed scintillation vial. Ten mL of acetonitrile was added to the vial and drug was extracted from the skin by shaking at room temperature overnight. The following day a 0.1 mL aliquot was removed and diluted with an additional 0.9 mL of acetonitrile. The diluted sample was added to the silanized HPLC vial for analysis.
At the end of the experiment, a 0.01 mL aliquot of the PG donor solution was removed and added to a scintillation vial containing 10 mL of acetonitrile. The vials were vortexed and then sonicated for 15 min. An aliquot of 1 mL was removed and transferred into a silanized HPLC vial for analysis.

[1] = Table 3, in propylene glycol, prodrug applied
[2] = Table 11, in gel formulation, CBD from applied prodrug
[3] = Table 11, in gel formulation, as applied compound (CBD or intact prodrug)
[4] = Table 11, in gel formulation, prodrug applied, as total CBD equivalents (cannabidiol and/or prodrug)
[5] = Table 12, in gel formulation, CBD from applied prodrug
[6] = Table 12, in gel formulation, as applied compound (CBD or intact prodrug)
[7] = Table 12, in gel formulation, prodrug applied, as total CBD equivalents
[8] = Table 13, in propylene glycol, 36 h, CBD from applied prodrug
[9] = Table 13, in propylene glycol, 36 h, as applied compound (CBD or intact prodrug)
[10] = Table 13, in propylene glycol, 36 h, prodrug applied, as total CBD equivalents
[11] = Table 13, in propylene glycol, CBD from applied prodrug
[12] = Table 13, in propylene glycol, as applied compound (CBD or intact prodrug)
[13] = Table 13, in propylene glycol, prodrug applied, as total CBD equivalents
[14] = Table 3, in propylene glycol, CBD high conc.
[15] = Table 3, in propylene glycol, CBD low conc.
[16] = Table 4, in propylene glycol, CBD high conc.
[17] = Table 4, in propylene glycol, CBD low conc.
[18] = Table 5, in propylene glycol, CBD high conc.
[19] = Table 5, in propylene glycol, CBD low conc.
[20] = Table 14, in propylene glycol, as applied compound (CBD or intact prodrug)

C=C(C)[C@@H]1CCC(C)=C[C@H]1c1c(OC(=O)CCN(C)C)cc(CCCCC)cc1OC(=O)CCN(C)C [ALL00101, CBD bis(3-(dimethylamino)propionate)]
flux enhancement (in words) (Example 1): No flux enhancement | form in which the prodrug permeated through the human skin (Example 1): permeated through the human skin as cannabidiol | found in the skin disposition (tissue) samples (Example 1): Both cannabidiol and intact prodrug were found | intact prodrug in the diffusion samples (receiver samples) (Example 1): No intact prodrug was found | total cannabidiol in the skin compared to cannabidiol (Example 1): higher | 24 h cumulative amt [1]: 11.0 ± 0.1 nmol | Flux [1]: 1.0 ± 0.4 nmol/cm^2/h | Lag time [1]: 11.7 ± 5.1 h | 24 h skin conc (Table 3, in propylene glycol, prodrug applied, found in skin as CBD): 17.4 ± 4.3 (CBD) μmol/g | 24 h skin conc (Table 3, in propylene glycol, prodrug applied, found in skin as PD (prodrug)): 29.2 ± 7.6 (PD) μmol/g

C=C(C)C1CCC(C)=CC1c1c(OC(=O)CN(C)C)cc(CCCCC)cc1OC(=O)CN(C)C (stereo not drawn) [ALL00105, CBD bis(N,N-dimethylglycinate)]
form in which the prodrug permeated through the human skin (Example 1): permeated primarily as intact prodrug | 24 h cumulative amt [2]: 4.1 ± 1.5 nmol | 24 h skin conc [2]: 2.5 ± 2.1 µmol/g | Flux [2]: 0.3 ± 0.02 nmol/cm^2/h | Lag time [2]: 0.8 ± 0.4 h | 24 h cumulative amt [3]: 66.8 ± 9.0 nmol | 24 h skin conc [3]: 82.1 ± 58.9 µmol/g | Flux [3]: 2.9 ± 0.5 nmol/cm^2/h | Lag time [3]: 7.9 ± 3.3 h | 24 h cumulative amt [4]: 76.5 ± 7.9 nmol | 24 h skin conc [4]: 84.5 ± 60.7 µmol/g | Flux [4]: 3.3 ± 0.7 nmol/cm^2/h | Lag time [4]: 1.2 ± 0.1 h | 24 h cumulative amt [5]: 1.1 ± 0.02 nmol | 24 h skin conc [5]: 2.2 ± 2.1 µmol/g | Flux [5]: 0.06 ± 0.02 nmol/cm^2/h | Lag time [5]: 1.0 ± 0.6 h | 24 h cumulative amt [6]: 7.3 ± 0.03 nmol | 24 h skin conc [6]: 27.5 ± 7.4 µmol/g | Flux [6]: 0.37 ± 0.01 nmol/cm^2/h | Lag time [6]: 3.9 ± 4.8 h | 24 h cumulative amt [7]: 8.9 ± 0.04 nmol | 24 h skin conc [7]: 29.7 ± 9.1 µmol/g | Flux [7]: 0.41 ± 0.03 nmol/cm^2/h | Lag time [7]: 0.9 ± 1.2 h | Flux [8]: 1.4 ± 0.2 nmol/cm^2/h | Lag time [8]: 12.6 ± 1.3 h | Flux [9]: 0.5 ± 0.01 nmol/cm^2/h | Lag time [9]: 7.5 ± 0.0 h | Flux [10]: 1.9 ± 0.2 nmol/cm^2/h | Lag time [10]: 10.0 ± 2.9 h | 36 h cumulative amt [11]: 32.6 ± 3.0 nmol | 36 h skin conc. [11]: 2.8 ± 3.8 µmol/g | 36 h cumulative amt [12]: 14.7 ± 3.2 nmol | 36 h skin conc. [12]: 8.8 ± 0.0 µmol/g | 36 h cumulative amt [13]: 47.2 ± 0.1 nmol | 36 h skin conc. [13]: 7.2 ± 10.1 µmol/g | cumulative amount of total cannabidiol equivalents delivered, compared to cannabidiol (gel formulation): 3.1-5.9 fold | decrease of lag time of total cannabidiol compared to the parent drug (gel formulation studies): 7 to 8 h | mean flux enhancement (mean between the two gel formulation experiments): 2.5 | enhancement with the propylene glycol donor solution (propylene glycol donor solution): did not show any enhancement

C=C(C)[C@@H]1CCC(C)=C[C@H]1c1c(O)cc(CCCCC)cc1O [cannabidiol, reference compound]
24 h cumulative amt (Table 2, in propylene glycol): 222.7 ± 74.0 nmol | 24 h skin conc (Table 2, in propylene glycol): 190.8 ± 10.7 µmol/g | Flux (Table 2, in propylene glycol): 10.4 ± 2.0 nmol/cm^2/h | 24 h cumulative amt [14]: 89.2 ± 15.0 nmol | 24 h skin conc [14]: 223.1 ± 75.3 µmol/g | Flux [14]: 7.8 ± 1.1 nmol/cm^2/h | 24 h cumulative amt [15]: 50.1 ± 28.1 nmol | 24 h skin conc [15]: 26.3 ± 14.1 µmol/g | Flux [15]: 4.5 ± 2.5 nmol/cm^2/h | 24 h cumulative amt [16]: 110.4 ± 18.9 nmol | 24 h skin conc [16]: 167.6 ± 76.7 µmol/g | Flux [16]: 8.5 ± 2.4 nmol/cm^2/h | 24 h cumulative amt [17]: 63.5 ± 47.5 nmol | 24 h skin conc [17]: 112.5 ± 61.8 µmol/g | Flux [17]: 6.0 ± 3.3 nmol/cm^2/h | 24 h cumulative amt [18]: 42.4 ± 10.7 nmol | 24 h skin conc [18]: 104.9 ± 51.0 µmol/g | Flux [18]: 3.9 ± 0.0 nmol/cm^2/h | 24 h cumulative amt [19]: 56.9 ± 39.4 nmol | 24 h skin conc [19]: 75.3 ± 33.1 µmol/g | Flux [19]: 5.7 ± 3.5 nmol/cm^2/h | 24 h cumulative amt (Table 6, in propylene glycol): 27.5 ± 32.5 nmol | 24 h skin conc (Table 6, in propylene glycol): 49.2 ± 15.2 µmol/g | Flux (Table 6, in propylene glycol): 4.3 ± 2.4 nmol/cm^2/h | 36 h cumulative amt (Table 7, in propylene glycol): 15.7 ± 5.4 nmol | 36 h skin conc. (Table 7, in propylene glycol): 44.1 ± 15.5 µmol/g | Flux (Table 7, in propylene glycol, 36 h experiment): 1.0 ± 0.7 nmol/cm^2/h | 36 h cumulative amt (Table 8, in gel formulation): 52.0 ± 42.7 nmol | 36 h skin conc. (Table 8, in gel formulation): 28.4 ± 8.8 µmol/g | Flux (Table 8, in gel formulation, 36 h experiment): 2.0 ± 2.3 nmol/cm^2/h | 24 h cumulative amt (Table 9, in gel formulation): 1.9 ± 1.3 nmol | Flux (Table 9, in gel formulation): 0.10 ± 0.06 nmol/cm^2/h | 24 h skin conc (Table 9, in gel formulation, as applied compound (CBD, or PD = intact prodrug)): 24.6 ± 3.6 µmol/g | 24 h cumulative amt (Table 10, in propylene glycol): 164.5 ± 34.1 nmol | Flux (Table 10, in propylene glycol): 8.0 ± 0.9 nmol/cm^2/h | 24 h skin conc (Table 10, in propylene glycol, as applied compound (CBD, or PD = intact prodrug)): 85.8 ± 24.3 µmol/g | 24 h cumulative amt [3]: 13.3 ± 2.6 nmol | 24 h skin conc [3]: 29.0 ± 10.2 µmol/g | Flux [3]: 1.0 ± 0.1 nmol/cm^2/h | 24 h cumulative amt [6]: 2.9 ± 0.1 nmol | 24 h skin conc [6]: 88.4 ± 36.3 µmol/g | Flux [6]: 0.24 ± 0.003 nmol/cm^2/h | Flux [9]: 4.2 ± 0.0 nmol/cm^2/h | 36 h cumulative amt [12]: 94.5 ± 0.0 nmol | 36 h skin conc. [12]: 39.4 ± 0.0 µmol/g | Flux (Table 14, in propylene glycol, 36 h, as applied compound (CBD or intact prodrug)): 8.4 ± 2.4 nmol/cm^2/h | 36 h cumulative amt [20]: 93.6 ± 38.0 nmol | 36 h skin conc. [20]: 92.9 ± 4.8 µmol/g
